# US20220118123A1, “COMBINATION OF AR ANTAGONISTS AND TARGETED THORIUM CONJUGATES” (Bayer Aktiengesellschaft, priority 2019, published 2022)
# Tests used:
# [1] = tested on: KUCaP-1 human patient derived prostate cancer model; test: anti-tumor activity in KUCaP-1 patient derived prostate cancer xenograft model; type: in vivo, mice; details: KUCaP-1, day 32
# C4-2 cells [2] = test: in vitro cytotoxicity of PSMA-TTC with AR antagonist pre-treatment, cell titer Glo cell viability; type: cell-based; details: then PSMA-TTC dose titration (50 MBq/mg), 5 days incubation
# Protocol: (§1) The effects of PSMA-TTC compound A′ and compound B (darolutamide, ODM-201) or compound C (enzalutamide) in PSMA overexpressing prostate cancer cell lines LNCaP and C4-2 were investigated in vitro. LNCaP (hormone sensitive) and C4-2 (hormone insensitive) cells were co-cultured in presence of either enzalutamide or darolutamide/ODM-201 and the effect on cell binding of PSMA-conjugate and cytotoxicity of PSMA-TTC was evaluated.
# C4-2 and LNCaP cells were seeded in similar cell medium (RPMI/10% FBS/1% HEPES/1% MEM NEAA/1% NaPyruvate/1% L-glutamine). One day after seeding, cells were exposed to either enzalutamide (1 μM), darolutamide (=ODM-201) (10 μM) or DMSO (0.1% (v/v); reference). Seven, 14 and 21 days after co-culturing, the cells were analyzed for cell surface binding of PSMA antibody-chelator conjugate by flow cytometry. […] In addition, cells pre-treated in the presence or absence of AR antagonists at the respective concentrations entered cytotoxicity experiments using cell titer Glo (Promega) as readout for cell viability.
# Respective cells pretreated for 0 or 7 days with AR antagonists were seeded on Day −1 at an appropriate cell density (e.g. 1000 cells/well). […] Cell viability was measured after incubation for 5 days in the presence of dose titrations of PSMA-TTC or corresponding controls. […]
# C4-2 cells [3] = test: cell surface binding of PSMA antibody-chelator conjugate by flow cytometry after co-culture with AR antagonists; type: cell-based; details: 10 μM darolutamide; 7, 14 and 21 days co-culturing; saturating conjugate concentrations; vs DMSO reference
# Protocol: as §1
# C4-2 and LNCaP cells were seeded in similar cell medium (RPMI/10% FBS/1% HEPES/1% MEM NEAA/1% NaPyruvate/1% L-glutamine). One day after seeding, cells were exposed to either enzalutamide (1 μM), darolutamide (=ODM-201) (10 μM) or DMSO (0.1% (v/v); reference). Seven, 14 and 21 days after co-culturing, the cells were analyzed for cell surface binding of PSMA antibody-chelator conjugate by flow cytometry. The binding of PSMA conjugate at saturating concentrations increased in both cell lines after treatment with the AR antagonists: maximal binding of PMSA conjugate was increased by 1 μM enzalutamide by 1.9 to 2.8 fold and by 10 μM darolutamide by 1.7-3.6 fold. Similar results were obtained in LNCaP cells. In addition, cells pre-treated in the presence or absence of AR antagonists at the respective concentrations entered cytotoxicity experiments using cell titer Glo (Promega) as readout for cell viability.
# [4] = tested on: ST1273 human patient derived prostate cancer model; test: anti-tumor activity in ST1273 patient derived prostate cancer xenograft model; type: in vivo, mice
# [5] = ST1273, 26 days after dosing/start of treatment
SMILES,"PD, progressive disease (mice/group) [1]","Response rate (RR) ([1]; PSMA-TTC 150 kBq/kg i.v., darolutamide 200 mg/kg QD p.o.)",sensitivity to growth inhibition by PSMA-TTC (C4-2 cells [2]; darolutamide 10 μM for 7 days),increase of maximal binding of PSMA conjugate (C4-2 cells [3]),sensitivity to growth inhibition by PSMA-TTC (C4-2 cells [2]; enzalutamide 1 μM for 7 days),"complete response, share of the mice [4, 5] [%]","partial response, share of the mice [4, 5] [%]","CR, complete response (mice/group) ([4]; ST1273, day 26)","PR, partial response (mice/group) ([4]; ST1273, day 26)","Response rate (RR) ([4]; ST1273, day 26, PSMA-TTC 250 kBq/kg single i.v., enzalutamide 30 mg/kg QD×28 p.o.)"
"CC(O)c1cc(C(=O)N[C@@H](C)Cn2ccc(-c3ccc(C#N)c(Cl)c3)n2)n[nH]1 (stereo partly drawn) [darolutamide, N-((S)-1-(3-(3-Chloro-4-cyanophenyl)-1H-pyrazol-1-yl-)-propan-2-yl)-5-(1-hydroxyethyl)-1H-pyrazole-3-carboxamide]",(PD: 10/10),RR: 0%,increased sensitivity to growth inhibition by PSMA-TTC,1.7-3.6 fold,–,–,–,–,–,–
CNC(=O)c1ccc(N2C(=S)N(c3ccc(C#N)c(C(F)(F)F)c3)C(=O)C2(C)C)cc1F [enzalutamide],–,–,–,–,increased sensitivity to growth inhibition by PSMA-TTC,33,67,"(CR: 3/9,",PR: 6/9),RR: 100%
